Source: patent US20260206761A1, “HETEROARYL-TRIAZOLE COMPOUNDS AS PESTICIDES” (Bayer Aktiengesellschaft, priority 2019, published 2026)

How the values were obtained:
Assay type in all cases: in vivo
[1] = system: adult engorged female ticks (Rhipicephalus microplus); assay: Rhipicephalus (Boophilus) microplus injection test; conditions: 168 h, egg deposition after 7 days, read-out: activity (efficacy: infertile eggs); for pest or weed control at 4 pg: application rate 4 pg/animal; for pest or weed control at 0.02 mg: application rate 20 μg/animal
Description: Rhipicephalus (Boophilus) microplus—Injection Test
(§1) Solvent: dimethyl sulfoxide
To produce a suitable preparation of active compound, 10 mg of active compound are dissolved in 0.5 mL solvent, and the concentrate is diluted with solvent to the desired concentration.
Five adult engorged female ticks (Rhipicephalus microplus) are injected with 1 μL compound solution into the abdomen. The ticks are transferred into replica plates and incubated in a climate chamber.
After 7 days egg deposition of fertile eggs is monitored. Eggs where fertility is not visible are stored in a climate chamber till hatching after about 42 days. An efficacy of 100% means all eggs are infertile; 0% means all eggs are fertile.

[2] = system: adult unfed cat fleas (Ctenocephalides felis); assay: Ctenocephalides felis oral test; conditions: 48 h, read-out: activity (mortality)
Description: Ctenocephalides felis—Oral Test
as §1
To produce a suitable preparation of active compound, 10 mg of active compound are dissolved in 0.5 mL solvent, and the concentrate is diluted with cattle blood to the desired concentration.
Approximately 20 adult unfed cat fleas (Ctenocephalides felis) are placed in flea chambers. The blood chamber, sealed with parafilm on the bottom, are filled with cattle blood supplied with compound solution and placed on the gauze covered top of the flea chamber, so that the fleas are able to suck the blood. The blood chamber is heated to 37° C. whereas the flea chamber is kept at room temperature.
After 2 days mortality in % is determined. 100% means all the fleas have been killed; 0% means none of the fleas have been killed.

[3] = system: larvae of the banded cucumber beetle (Diabrotica balteata); assay: Diabrotica balteata spray test; conditions: 168 h, after 7 days, read-out: activity (efficacy: seedlings grown); for pest or weed control at 100 g/ha: application rate 100 g/ha (=32 pg/well)
Description: Diabrotica balteata—spray test
(§2) Solvent: 78.0 parts by weight of acetone • • 1.5 parts by weight of dimethylformamide
(§3) Emulsifier: alkylarylpolyglycol ether
(§4) To produce a suitable preparation of active compound, 1 part by weight of active compound is mixed with the stated amount of solvent, and the concentrate is diluted with water, containing an emulsifier concentration of 1000 ppm, to the desired concentration. Further test concentrations are prepared by dilution with emulsifier containing water.
Soaked wheat seeds (Triticum aestivum) are placed in a multiple well plate filled with agar and some water and are incubated for 1 day to germinate (5 seeds per well). The germinated wheat seeds are sprayed with a test solution containing the desired concentration of the active ingredient. Afterwards each unit is infected with 10-20 larvae of the banded cucumber beetle (Diabrotica balteata).
After 7 days efficacy in % is determined. 100% means all the seedlings have grown up like in the untreated, uninfected control; 0% means none of the seedlings have grown.

[4] = system: fall armyworm larvae (Spodoptera frugiperda); assay: Spodoptera frugiperda spray test; conditions: 168 h, read-out: activity (mortality)
Description: Spodoptera frugiperda—Spray Test
Solvent: 78.0 parts by weight acetone • 1.5 parts by weight dimethylformamide
as §3
as §4, with “solvents” for “solvent,”, “and” for “and the concentrate”
Maize (Zea mays) leaf sections are sprayed with a preparation of the active ingredient of the desired concentration. Once dry, the leaf sections are infested with fall armyworm larvae (Spodoptera frugiperda).
After 7 days mortality in % is determined. 100% means all caterpillars have been killed and 0% means none of the caterpillars have been killed.

[5] = system: green peach aphid (Myzus persicae); assay: Myzus persicae oral test; conditions: 120 h, application rate 4 ppm, after 5 days
Description: Solvent: 100 parts by weight acetone
To produce a suitable preparation of active compound, 1 part by weight of active compound is mixed with the stated amount of solvent, and the concentrate is diluted with water to the desired concentration.
50 μL compound solution is filled in microtiter plates and 150 μL IPL41 insect medium (33%+15% sugar) is added to obtain a total volume of 200 μL per well. Afterwards the plates are sealed with parafilm through which a mixed population of the green peach aphid (Myzus persicae) can suck on the compound preparation.
After 5 days mortality in % is determined. 100% means all aphids have been killed and 0% means none of the aphids have been killed.

[6] = system: larvae of the southern green stink bug (Nezara viridula); assay: Nezara viridula spray test; conditions: 96 h, after 4 days; for mortality at 100 g/ha: application rate 100 g/ha; for mortality at 500 g/ha: application rate 500 g/ha
Description: Nezara viridula—Spray Test
as §2, §3, §4
Barley plants (Hordeum vulgare) infested with larvae of the southern green stink bug (Nezara viridula) are sprayed with a test solution containing the desired concentration of the active ingredient.
After 4 days mortality in % is determined. 100% means all the stink bugs have been killed; 0% means none of the stink bugs have been killed.

[7] = system: Rhipicephalus microplus larvae (strain Parkhurst, resistant against synthetic pyrethroids); assay: Rhipicephalus (Boophilus) microplus in-vitro contact test, larval cattle tick; conditions: after 48 hours, read-out: activity (efficacy: larvae dead or moribund); for pest or weed control at 100 g/ha: application rate 1 pg/cm^2 (=100 g/ha); for pest or weed control at 500 g/ha: application rate 5 pg/cm^2 (=500 g/ha)
Description: Rhipicephalus (Boophilus) microplus—In-Vitro Contact Tests Larval Cattle Tick (Strain Parkhurst. Resistant Against Synthetic Pyrethroids)
(§5) 9 mg compound is solved in 1 mL acetone and diluted with acetone to the desired concentration. 250 μL of the test solution is filled in 25 mL glass test tubes and homogeneously distributed on the inner walls by rotation and tilting on a shaking device (2 h at 30 rpm). With a compound concentration of 900 ppm, an inner surface of 44.7 cm^2 and a homogeneous distribution, a dose of 5 μg/cm^2 is achieved.
After the solvent has evaporated, each test tube is filled with 20-50 cattle tick larvae (Rhipicephalus microplus), closed with a perforated lid and incubated in a horizontal position at 85% relative humidity and 27° C. in an incubator. After 48 hours efficacy is determined. The larvae are patted on the ground of the tubes and negative geotactic behaviour is recorded.
An efficacy of 100% means all larvae are dead or moribund; 0% means no larvae are dead or moribund.

[8] = system: adult brown dog ticks (Rhipicephalus sanguineus); assay: Rhipicephalus sanguineus in-vitro contact test, adult brown dog ticks; conditions: after 48 hours, read-out: activity (efficacy: ticks dead or moribund); for pest or weed control at 100 g/ha: application rate 1 pg/cm^2 (=100 g/ha); for pest or weed control at 5 µg/cm2, 500 g/ha: application rate 5 μg/cm^2 (=500 g/ha)
Description: Rhipicephalus sanguineus—In-Vitro Contact Tests with Adult Brown Dog Ticks
as §5
After the solvent has evaporated, each test tube is filled with 5-10 adult brown dog ticks (Rhipicephalus sanguineus), closed with a perforated lid and incubated in a lying position at room temperature and relative humidity. After 48 hours efficacy is determined. The ticks are patted on the ground of the tubes and are incubated on a heating plate at 45-50° C. for at most 5 minutes. Immotile or uncoordinated moving ticks, which are not able to escape the heat by climbing upwards, are marked as dead or moribund.
An efficacy of 100% means all ticks are dead or moribund; 0% means no ticks are dead or moribund.

Structure (SMILES) | pest or weed control at 4 pg [1] | mortality at 100 ppm [2] | pest or weed control at 0.02 mg [1] | pest or weed control at 500 g/ha ([3]; application rate 500 g/ha (=160 pg/well)) | mortality at 500 g/ha [4] | pest or weed control at 100 g/ha [3] | mortality at 4 ppm [5] | mortality at 100 g/ha [6] | mortality at 500 g/ha [6] | mortality at 100 g/ha [4] | pest or weed control at 100 g/ha [7] | pest or weed control at 500 g/ha [7] | pest or weed control at 100 g/ha [8] | pest or weed control at 5 µg/cm2, 500 g/ha [8]
C[C@H](NC(=O)c1cc(C(F)(F)F)cc(S(C)(=O)=O)c1)c1ncnn1-c1ccc(S(C)(=O)=O)cn1 [II-56, 3-(methylsulfonyl)-N-[(1S)-1-{1-[5-(methylsulfonyl)pyridin-2-yl]-1H-1,2,4-triazol-5-yl}ethyl]-5-(trifluoromethyl)benzamide] | 100% | 100% |  |  |  |  |  |  |  |  |  |  |  | 
C[C@H](NC(=O)c1cc(Cl)cc(C2(C#N)CC2)c1)c1ncnn1-c1nccs1 [II-5] | 100% | 100% | 100% | 100% | 100% |  |  |  |  |  |  |  |  | 
C[C@H](NC(=O)c1cc(OC(F)F)cc(S(C)(=O)=O)c1)c1nc(C2CC2)nn1-c1ccc(C#N)cn1 [I-65] |  |  |  |  |  | 100% | 100% | 100% | 100% | 100% |  |  |  | 
CCS(=O)(=O)c1cc(Cl)cc(C(=O)N[C@@H](C)c2nc(C3CC3)nn2-c2ccc(C#N)cn2)c1 [I-20] | 100% | 100% | 100% |  |  | 80% |  |  |  | 100% | 100% | 100% |  | 
CCCc1nc([C@H](C)NC(=O)c2cc(Cl)cc(S(C)(=O)=O)c2)n(-c2ccc(C#N)cn2)n1 [I-2] | 100% | 100% | 100% |  | 100% |  |  |  |  | 83% | 100% | 100% |  | 
COc1nc([C@H](C)NC(=O)c2cc(Cl)cc(S(=O)(=O)C(F)F)c2)n(-c2ccc(C#N)cn2)n1 [I-55] |  |  |  |  |  | 100% | 100% |  |  | 100% | 100% | 100% |  | 
C[C@H](NC(=O)c1cc(OC(F)F)cc(C2CC2)c1)c1ncnn1-c1ccc(C#N)cn1 [II-62] | 100% |  |  |  |  | 100% | 100% |  |  | 100% | 100% | 100% | 100% | 100%
COc1nc([C@H](C)NC(=O)c2cc(OC(F)F)cc(C3CC3)c2)n(-c2ncc(Cl)cn2)n1 [I-76] |  |  |  |  |  | 100% | 100% |  |  | 100% | 100% | 100% |  | 
C[C@H](NC(=O)c1cc(Cl)cc(S(C)(=O)=O)c1)c1nc(C2CC2)nn1-c1ccc(Cl)cn1 [I-58] |  |  |  |  |  | 100% | 100% | 100% | 100% | 100% | 100% | 100% | 100% | 80%
COc1nc([C@H](C)NC(=O)c2cc(OC(F)(F)F)cc(C3CC3)c2)n(-c2ccc(C#N)cn2)n1 [I-44] | 100% |  |  |  |  | 100% | 90% |  |  | 100% | 100% | 100% | 100% | 100%
C[C@H](NC(=O)c1cc(OC(F)(F)F)cc(S(C)(=O)=O)c1)c1nc(C2CC2)nn1-c1ccc(Cl)cn1 [I-69] |  |  |  |  |  | 100% | 100% | 90% |  | 100% |  |  |  | 
C[C@H](NC(=O)c1cc(F)cc(S(C)(=O)=O)c1)c1nc(C2CC2)nn1-c1ccc(Cl)cn1 [I-60] |  |  |  |  |  | 100% | 100% | 100% | 100% | 100% | 100% | 100% | 100% | 100%
C[C@H](NC(=O)c1cc(Cl)cc(S(=O)(=O)C(F)F)c1)c1nc(C2CC2)nn1-c1ccc(C#N)cn1 [I-27] | 100% | 100% |  |  |  | 100% |  |  |  | 100% | 100% | 100% |  | 
C[C@H](NC(=O)c1cc(Cl)cc(S(=O)(=O)C2CC2)c1)c1nc(C2CC2)nn1-c1ccc(Cl)cn1 [I-59] |  |  |  |  |  | 80% | 100% | 100% | 100% | 100% | 100% | 100% |  | 
COc1nc([C@H](C)NC(=O)c2cc(Br)cc(C3(F)CC3)c2)n(-c2ccc(C#N)cn2)n1 [I-71] |  |  |  |  |  | 100% | 100% |  |  | 100% | 100% | 100% |  | 
COc1nc([C@H](C)NC(=O)c2cc(OC(F)(F)F)cc(S(C)(=O)=O)c2)n(-c2ccc(C#N)cn2)n1 [I-75] |  |  |  |  |  | 80% | 100% | 100% | 90% | 100% |  |  |  | 
